Data set [1] has as its system Varroa mites. In words: whole plant or invertebrate. To be noted: for statistically significant mite mortality (Kruskal-Wallis): at 24 h, 100 mg/mL, 250 mg/mL, 1 g/mL tested, 15, 30 or 45 min exposure; for mite mortality: 24 h. Here is the method: Efficacy of 12 caffeic and ferulic acid/ester molecules (caffeic acid, ferulic acid, caffeic acid cinnamyl ester, caffeic acid phenethyl ester, caffeic acid 3-methyl-3-butenyl ester, caffeic acid 3-methyl-2-butenyl ester, caffeic acid benzyl ester, ferulic acid cinnamyl ester, ferulic acid phenethyl ester, ferulic acid 3-methyl-3-butenyl ester, ferulic acid 3-methyl-2-butenyl ester, ferulic acid benzyl ester) against Varroa mites in a laboratory assay was determined. Adult female mites were collected from a single honey bee colony by uncapping drone cells and removing the mites to avoid injury that might occur if other methods (e.g., sugar shake) were used. Mites lacking vigor were discarded prior to experiment. Varroa were removed from single-age pupae, randomized, and placed in groups of ten in a sealed chamber. They were left in an incubator with pupae. After a set amount of time, the Varroa were transferred to a chamber with a potential miticide. The effects of each miticide were evaluated both through contact and through vapor. Concentrations and contact time were also evaluated. The Varroa were then transferred back to their chamber in the incubator and checked for mortality (each experiment in triplicate). […] Treatments were tested for their efficacy in repelling and killing mites.
To test for contact-phase miticidal activity, 250 μl of each treatment was evenly applied to a Whatman No. 4 filter paper in a Petri dish. The paper was allowed to completely dry before the assay and then it was adhered to the bottom of the dish. Ten mites per treatment were placed directly on the filter paper and the mites were kept in the dish for either 15 min, 30 min, or 45 min. After the initial time period, all mites were transferred into a sterile Petri dish and maintained in an incubator for 30 h. Each hour the mites were removed and observed under a dissecting lens. Each treatment concentration and exposure period was repeated three times.
Statistical analysis for repellency was conducted on the mean number of mites repelled and was compared by a two-way ANOVA. […] Percent mortality was compared between treatments by a non-parametric Kruskal-Wallis test.

Data set [2] deals with Varroa mites. The data set is described as follows: Example 2: mites exposed to filter paper impregnated with the caffeic ester family, mite mortality and activity. To be noted: assessed 6 h, 24 h, 30 h post exposure; various concentrations and exposure times. Set-up: species or system Varroa destructor. Here is the method:
In a series of assays, Whatman filter paper was impregnated with various concentrations of the caffeic ester family of molecules. Varroa mites were freshly harvested from brood frames and then directly exposed to the substrate. The exposure time was varied across different experiments. The Varroa mites were removed and placed into an incubator with pupae to feed on. Mite mortality and mite activity was assessed at several time points (6 h, 24 h, 30 h) post exposure.

As for `O=C(O)/C=C/c1ccc(O)c(O)c1` [caffeic acid], the “statistically significant mite mortality (Kruskal-Wallis)” value in the data set on Varroa mites [1] was “all of the molecules except caffeic acid and ferulic acid showed statistically significant mite mortality”.
In general, mortality refers to the share of the test organisms that died. Take `Cc1ccc(C(C)C)c(O)c1` [thymol, reference compound]: in the data set with Varroa mites [1] (Varroa destructor, 6 h, read-out: mortality (positive control)), the mortality at 100000 µg/mL amounted to 100%.
As to `COc1cc(/C=C/C(=O)OCC=C(C)C)ccc1O` [ferulic acid 3-methyl-2-butenyl ester], the mite mortality result in the data set with Varroa mites [1] is recorded as “over 60%”.
For `O=C(/C=C/c1ccc(O)c(O)c1)OCC=Cc1ccccc1` [caffeic acid cinnamyl ester], in the data set with Varroa mites [1], the mite mortality result is listed as “over 60%”.
Regarding `O=C(/C=C/c1ccc(O)c(O)c1)OCCc1ccccc1` [caffeic acid phenethyl ester], in the data set with Varroa mites [2], the “relative efficacy (mite mortality and activity)” value is on record as “most efficacious molecule tested”.
In the case of `COc1cc(/C=C/C(=O)O)ccc1O` [ferulic acid], the “statistically significant mite mortality (Kruskal-Wallis)” value in the data set on Varroa mites [1] was “all of the molecules except caffeic acid and ferulic acid showed statistically significant mite mortality”.

The record behind these values is patent publication US20190364891A1, “Chemical Compositions for Combating Honey Bee Pests and Pathogens” (Fort Lewis College, priority 2018, published 2019).
